Data as given in patent US20100184047A1, “SCREENING AND THERAPEUTIC METHOD FOR NSCLC TARGETING THE CDCA8-AURKB COMPLEX” (ONCOTHERAPY SCIENCE, INC., priority 2007, published 2010).
“Also recorded” adds a separate entry of the source.

Tests used:
Format in all cases: cell-based, human
AURKB = AURKB knock-down by siRNA against AURKB, western blot; settings: LC319 cells
Experimental: (§1) Cells were lysed in lysis buffer; 50 mM Tris-HCl (pH 8.0), 150 mM NaCl, 0.5% NP-40, 0.5% deoxycholate-Na, 0.1% SDS, plus protease inhibitor (Protease Inhibitor Cocktail Set III; Calbiochem Darmstadt, Germany). An ECL western-blot analysis system was used (GE Healthcare Bio-sciences, Piscataway, N.J.), as previously described (Kato T, et al., Cancer Res. 2005 Jul. 1; 65(13):5638-46; Furukawa C, et al., Cancer Res. 2005 Aug. 15; 65(16):7102-10).
(§2) A vector-based RNA interference (RNAi) system, psiH1BX3.0, which was designed to synthesize siRNAs in mammalian cells was previously established (Suzuki C, et al., Cancer Res. 2003 Nov. 1; 63(21):7038-41; Kato T, et al., Cancer Res. 2005 Jul. 1; 65(13):5638-46; Furukawa C, et al., Cancer Res. 2005 Aug. 15; 65(16):7102-10; Suzuki C, et al., Cancer Res. 2005 Dec. 15; 65(24):11314-25. Ishikawa N, et al., Cancer Sci. 2006 August; 97(8):737-45; Takahashi K, et al., Cancer Res. 2006 Oct. 1; 66(19):9408-19; Hayama S, et al., Cancer Res. 2006 Nov. 1; 66(21):10339-48). 10 micrograms of siRNA-expression vector was transfected using 30 microliters of Lipofectamine 2000 (Invitrogen) into lung-cancer cell lines, LC319 and SBC-5. The transfected cells were cultured for seven days in the presence of appropriate concentrations of geneticin (G418), and the number of colonies was counted by Giemsa staining, and viability of cells was evaluated by MTT assay (cell-counting kit-8 solution; DOJINDO, Kumamoto, Japan), at 7 days after the G418 treatment. To confirm suppression of CDCA8 protein expression, western blotting was carried out with affinity-purified polyclonal antibody to CDCA8 according to the standard protocol. The target sequences of the synthetic oligonucleotides for RNAi were as follows:
Furthermore, to inhibit the AURKB activity in mammalian cells, siRNA oligos were constructed against AURKB (si-AURKB-#1 and -#2), as well as control siRNA oligos for EGFP. […]
#2: 5′-ACGCGGCACUUCACAAUUG-3′ (SEQ ID NO: 63)) in a final concentration of 100 nM. […] The cells were collected and analyzed after additional 72-hour culture.

CDCA8 transcripts = test: Semi-quantitative RT-PCR of CDCA8 transcript after AURKB knock-down; settings: LC319 cells
Experimental: Total RNA was extracted from cultured cells and clinical tissues using Trizol reagent (Life Technologies, Inc., Gaithersburg, Md.) according to the manufacturer's protocol. Extracted RNAs and normal human tissue poly(A) RNAs were treated with DNase I (Nippon Gene, Tokyo, Japan) and reversely-transcribed using oligo (dT) primer and SuperScript II reverse transcriptase (Invitrogen, Carlsbad, Calif.). Semi-quantitative RT-PCR experiments were carried out with the following synthesized CDCA8-specific primers, AURKB-specific primers, E2F-1-specific primers, or with beta-actin (ACTB)-specific primers as an internal control:
(§3) Cells seeded onto 10 cm-dishes were incubated in mixtures of both Lipofectamine (Invitrogen) and control 3 (5′-GAAGCAGCACGACUUCUUC-3′ (SEQ ID NO: 61)) or si-AURKBs (#1: 5′-CCAAACUGCUCAGGCAUAA-3′ (SEQ ID NO: 62);
(§4) #2: 5′-ACGCGGCACUUCACAAUUG-3′ (SEQ ID NO: 63)) in a final concentration of 100 nM. At 4 hours after transfection, the siRNA-lipofectamine mixtures were replaced with fresh media. The cells were collected and analyzed after additional 72-hour culture.

CDCA8 [1] = test: Western blot of endogenous CDCA8 protein after AURKB knock-down; settings: LC319 cells
Experimental: as §1, §2
Furthermore, to inhibit the AURKB activity in mammalian cells, siRNA oligos were constructed against AURKB (si-AURKB-#1 and -#2), as well as control siRNA oligos for EGFP. The target sequences of the synthetic oligonucleotides for RNAi were as follows:
as §3, §4

SBC-5 cells [2] = test: Colony formation assay after siRNA-expression vector transfection; settings: Giemsa staining, vs control siRNAs
Excerpt: as §2, with “follows: […]” for “follows:”

LC319 cells [3] = test: as above; settings: Giemsa staining, vs control siRNAs
Excerpt: as §2, with “follows: […]” for “follows:”

SBC-5 cells [4] = test: MTT assay after siRNA-expression vector transfection; settings: 7 days after G418 treatment, vs control siRNAs
Excerpt: as §2, with “follows: […]” for “follows:”

LC319 cells [5] = test: as above; settings: 7 days after G418 treatment, vs control siRNAs
Excerpt: as §2, with “follows: […]” for “follows:”

CDCA8 [6] = test: RNA interference with si-CDCA8 vectors, western blot of CDCA8 protein; settings: in comparison with two control siRNAs (EGFP, Luciferase)
Experimental: as §1
as §2, with “follows: […]” for “follows:”

Substance | AURKB expression / AURKB protein (AURKB) | level of CDCA8 transcripts (CDCA8 transcripts) | amount of CDCA8 protein (CDCA8 [1]) | colony numbers (colony-formation assay) (SBC-5 cells [2]) | colony numbers (colony-formation assay) (LC319 cells [3]) | cell viability (MTT assay) (SBC-5 cells [4]) | cell viability (MTT assay) (LC319 cells [5]) | expression of endogenous CDCA8 proteins (CDCA8 [6]; LC319 cells) | expression of endogenous CDCA8 proteins (CDCA8 [6]; SBC-5 cells) | phosphorylation levels of CDCA8 (CDCA8 [1])
5′-ACGCGGCACUUCACAAUUG-3′ (listed as RNA, chemistry not given here) [si-AURKB-#2] | Reduction | not influenced | dramatically decreased | – | – | – | – | – | – | –
5′-CAGCAGAAGCTATTCAGAC-3′ (CAGCAGAAGCTATTCAGACTTCAAGAGAGTCTGAATAGCTTCTGCTG; expressed or natural sequence) [si-CDCA8-#1] | – | – | – | significant decreases | significant decreases | significant decreases | significant decreases | significantly suppressed | significantly suppressed | –
5′-CCAAACUGCUCAGGCAUAA-3′ (listed as RNA, chemistry not given here) [si-AURKB-#1] | Reduction | not influenced | dramatically decreased | – | – | – | – | – | – | –
5′-GCCGTGCTAACACTGTTAC-3′ (GCCGTGCTAACACTGTTACTTCAAGAGAGTAACAGTGTTAGCACGGC; expressed or natural sequence) [si-CDCA8-#2] | – | – | – | significant decreases | significant decreases | significant decreases | significant decreases | significantly suppressed | significantly suppressed | –
5′-GGTGATTCACAGAGACATA-3′ (GGTGATTCACAGAGACATATTCAAGAGATATGTCTCTGTGAATCACC; expressed or natural sequence) [si-AURKB] | selectively knocked down; also recorded: Reduction | not influenced | decreased | – | – | – | – | – | – | decreased
